Reference: patent US20090069317A1, “Insecticidal Methods Using 3-Amino-1,2-Benzisothiazole Derivatives” (BASF SE, priority 2005, published 2009)

Columns and labels:
Bean Aphid (Aphis fabae) = assay: Bean aphid (Aphis fabae) nasturtium plant dip test, mortality; assay type: in vivo; conditions: 72 h, nasturtium plants dipped, aphid mortality after 3 days, read-out: mortality in comparison with untreated controls
From the text: B.3. Bean Aphid (Aphis fabae)
(§1) The active compounds were formulated in 50:50 acetone:water and 100 ppm Kinetic® surfactant.
Nasturtium plants grown in Metro mix in the 1st leaf-pair stage (variety ‘Mixed Jewel’) were infested with approximately 20-30 laboratory-reared aphids by placing infested cut plants on top of the test plants. The cut plants were removed after 24 hr. Each plant was dipped into the test solution to provide complete coverage of the foliage, stem, protruding seed surface and surrounding cube surface and allowed to dry in the fume hood. The treated plants were kept at about 25° C. with continuous fluorescent light. Aphid mortality is determined after 3 days.

[1] = tested on: Green Peach Aphid (Myzus Persicae); assay: Green peach aphid (Myzus persicae) pepper leaf dip test, mortality; assay type: in vivo; conditions: foliar, 120 h, pepper plant leaves dipped, aphid mortality after 5 days, read-out: mortality in comparison with untreated controls
From the text: B.2 Green Peach Aphid (Myzus Persicae)
as §1
Pepper plants in the 2nd leaf-pair stage (variety ‘California Wonder’) were infested with approximately 40 laboratory-reared aphids by placing infested leaf sections on top of the test plants. The leaf sections were removed after 24 hr. The leaves of the intact plants were dipped into gradient solutions of the test compound and allowed to dry. Test plants were maintained under fluorescent light (24 hour photoperiod) at about 25° C. and 20-40% relative humidity. Aphid mortality on the treated plants, relative to mortality on check plants, was determined after 5 days.

[2] = tested on: Cotton Aphid (Aphis gossypii); assay: Cotton aphid (Aphis gossypii) cotyledon dip test, mortality; assay type: in vivo; conditions: 120 h, cotton cotyledons dipped, mortality counts after 5 days, read-out: mortality in comparison with untreated controls
From the text: B.1 Cotton Aphid (Aphis gossypii)
as §1
Cotton plants at the cotyledon stage (one plant per pot) were infested by placing a heavily infested leaf from the main colony on top of each cotyledon. The aphids were allowed to transfer to the host plant overnight, and the leaf used to transfer the aphids was removed. The cotyledons were dipped in the test solution and allowed to dry. After 5 days, mortality counts were made.

Compound | mortality at 300 ppm (Bean Aphid (Aphis fabae)) [%] | mortality at 300 ppm [1] [%] | mortality at 300 ppm [2] [%] | melting point [°C]
CCN(CC)C1=NS(=O)(=O)c2cccc(Cl)c21 [Compound 3] | > 86 | > 86 | > 86 | –
C#CCN(C1=NS(=O)(=O)c2cccc(Cl)c21)C(C)C [Compound 4] | > 86 | – | > 86 | –
CCN(CC(C)C)C1=NS(=O)(=O)c2cccc(Cl)c21 [Compound 5] | > 86 | – | > 86 | –
CC(C)N(C1=NS(=O)(=O)c2cccc(Cl)c21)C1CC1 [Compound 6] | > 86 | > 86 | > 86 | –
CCN(C)C1=NS(=O)(=O)c2cccc(Cl)c21 [Compound 7] | > 86 | > 86 | > 86 | –
C=CCN(CCC)C1=NS(=O)(=O)c2cccc(Cl)c21 [Compound 8] | > 86 | – | > 86 | –
C=CCN(C1=NS(=O)(=O)c2cccc(Cl)c21)C(C)C [Compound 9] | > 86 | – | > 86 | –
CC(C)N(C1=NS(=O)(=O)c2cccc(Cl)c21)C(C)C [Compound 11] | > 86 | – | – | –
CCN(Cc1ccccc1)C1=NS(=O)(=O)c2cccc(Cl)c21 [Compound 12] | > 86 | – | – | –
CN(CC#N)C1=NS(=O)(=O)c2cccc(Cl)c21 [Compound 15] | > 86 | > 86 | > 86 | –
CON(C)C1=NS(=O)(=O)c2cccc(Cl)c21 [Compound 23] | > 86 | > 86 | > 86 | –
C#CCN(C1=NS(=O)(=O)c2cccc(OC(F)F)c21)C(C)C [Compound 36] | > 86 | > 86 | > 86 | –
CN(C)c1nsc2cccc(Cl)c12 [Compound 49] | > 86 | > 86 | > 86 | –
CCN(CC)c1nsc2cccc(OC(F)F)c12 [Compound 59] | – | – | – | 49 to 50
CCN(C)c1n[s+]([O-])c2cccc(Cl)c12 (stereo not drawn) [Compound 88] | – | > 86 | > 86 | –
CCN(CC)C1=NS(=O)(=O)c2c(F)ccc(OC)c21 [Compound 89] | – | > 86 | > 86 | –
CCN(C)C1=NS(=O)(=O)c2c(F)ccc(OC)c21 [Compound 91] | – | > 86 | > 86 | –
COc1cccc2snc(N(C)Cc3ccccc3)c12 [Compound 92] | – | > 86 | > 86 | –
CN(c1nsc2cccc(Cl)c12)C1CCCC1 [Compound 93] | – | > 86 | > 86 | –
COc1cccc2c1c(N(C)C)n[s+]2[O-] (stereo not drawn) [Compound 94] | – | > 86 | > 86 | –
CCN(CC)c1n[s+]([O-])c2cccc(OC)c12 (stereo not drawn) [Compound 95] | – | > 86 | > 86 | –
COc1ccc(F)c2c1C(N(C)CC#N)=NS2(=O)=O [Compound 96] | – | > 86 | > 86 | –
CC(C)N(O)C1=NS(=O)(=O)c2cccc(Cl)c21 [Compound 98] | – | > 86 | > 86 | –
COc1ccc(F)c2c1C(N(C)OC)=NS2(=O)=O [Compound 108] | – | > 86 | > 86 | –
CON(C)C1=NS(=O)(=O)c2cccc(OC(F)F)c21 [Compound 109] | – | > 86 | > 86 | –
CCON(C)C1=NS(=O)(=O)c2cccc(OC(F)F)c21 [Compound 110] | – | > 86 | > 86 | –
CCON(C1=NS(=O)(=O)c2cccc(OC(F)F)c21)C(C)C [Compound 111] | – | > 86 | > 86 | –
CCON(CC)C1=NS(=O)(=O)c2cccc(OC(F)F)c21 [Compound 112] | – | > 86 | > 86 | –
